# Laboratory results published in PubChem BioAssay AID1259407 (Chemical Carcinogenesis Research Information System (CCRIS), 2018).
# The source made the active and inactive calls. No rule for the calls is given here.
# System: CCRIS mutagenicity, Ames/micronucleus/aberration tests
# Experiment: CCRIS mutagenicity studies
# Details: Test System: AMES SALMONELLA TYPHIMURIUM
# [1] = Strain/Indicator: TA98, Metabolic Activation: NONE, Method: STANDARD PLATE
# [2] = Strain/Indicator: TA100, Metabolic Activation: NONE, Method: STANDARD PLATE
# [3] = Strain/Indicator: TA100, Metabolic Activation: RAT, LIVER, S-9, AROCLOR 1254, Method: STANDARD PLATE
# [4] = Strain/Indicator: TA98, Metabolic Activation: HAMSTER, LIVER, S-9, AROCLOR 1254 (10%), Method: PREINCUBATION
# [5] = Strain/Indicator: TA98, Metabolic Activation: NONE, Method: PREINCUBATION
# [6] = Strain/Indicator: TA98, Metabolic Activation: RAT, LIVER, S-9, AROCLOR 1254 (10%), Method: PREINCUBATION
# [7] = Strain/Indicator: TA100, Metabolic Activation: HAMSTER, LIVER, S-9, AROCLOR 1254 (10%), Method: PREINCUBATION
# [8] = Strain/Indicator: TA100, Metabolic Activation: NONE, Method: PREINCUBATION
# [9] = Strain/Indicator: TA100, Metabolic Activation: RAT, LIVER, S-9, AROCLOR 1254 (10%), Method: PREINCUBATION
# [10] = Strain/Indicator: TA1535, Metabolic Activation: HAMSTER, LIVER, S-9, AROCLOR 1254 (10%), Method: PREINCUBATION
# [11] = Strain/Indicator: TA1535, Metabolic Activation: NONE, Method: PREINCUBATION
# [12] = Strain/Indicator: TA1535, Metabolic Activation: RAT, LIVER, S-9, AROCLOR 1254 (10%), Method: PREINCUBATION
# [13] = Strain/Indicator: TA1537, Metabolic Activation: HAMSTER, LIVER, S-9, AROCLOR 1254 (10%), Method: PREINCUBATION
# [14] = Strain/Indicator: TA1537, Metabolic Activation: NONE, Method: PREINCUBATION
# [15] = Strain/Indicator: TA1537, Metabolic Activation: RAT, LIVER, S-9, AROCLOR 1254 (10%), Method: PREINCUBATION
Structure (SMILES),mutagenic call [1],mutagenic call [2],mutagenic call [3],mutagenic call [4],mutagenic call [5],mutagenic call [6],mutagenic call [7],mutagenic call [8],mutagenic call [9],mutagenic call [10],mutagenic call [11],mutagenic call [12],mutagenic call [13],mutagenic call [14],mutagenic call [15],also measured
CCN(CCCl)CCCNc1c2ccccc2nc2c1ccc1cccnc12,active; positive,active; positive,,,,,,,,,,,,,,"mutagenic call (Strain/Indicator: TA1535, Metabolic Activation: NONE, Method: STANDARD PLATE): inactive; negative; mutagenic call (Strain/Indicator: TA1536, Metabolic Activation: NONE, Method: STANDARD PLATE): active; positive; mutagenic call (Strain/Indicator: TA1537, Metabolic Activation: NONE, Method: STANDARD PLATE): active; positive; mutagenic call (Strain/Indicator: TA1538, Metabolic Activation: NONE, Method: STANDARD PLATE): active; positive"
Oc1cc2ccc3cccc4cc5c(c1-c1ccccc1-5)c2c34,,,inactive; negative,,,,,,,,,,,,,
Cn1cnc2cc([N+](=O)[O-])ccc21,inactive; negative,,,,,,,,,,,,,,,
C=C(C)C(=O)OCCCCCCCCCC,,,,inactive; negative,inactive; negative,inactive; negative,inactive; negative,inactive; negative,inactive; negative,inactive; negative,inactive; negative,inactive; negative,inactive; negative,inactive; negative,inactive; negative,
CC(C)CCC(C)Nc1ccc(NC(C)CCC(C)C)cc1 (stereo unspecified),,,,inactive; negative,inactive; negative,inactive; negative,inactive; negative,inactive; negative,inactive; negative,inactive; negative,inactive; negative,inactive; negative,inactive; negative,inactive; negative,inactive; negative,
CC1CCC(NC(=O)N(CCCl)N=O)CC1 (stereo unspecified),,active; positive,active; positive,,,,,,,,,,,,,"mutagenic call (Strain/Indicator: G46, Metabolic Activation: NONE): active; positive; mutagenic call (Strain/Indicator: TA1535, Metabolic Activation: NONE): active; positive"
